Series [1] relates to Caco-2 (human colorectal cancer). Nature of the series: MTT cytotoxicity assay, Caco-2. It is filed as cell-based. To be noted: means of three experiments, 24 hr, read-out: IC50 Caco-2 (anti-proliferative activity). As to the method:
(§1) Human tumor cell lines of two different histological origins were used: Caco-2 (human colorectal cancer) and MCF-7 (human breast cancer) which were purchased from the National Cell bank of Pasteur Institute of Iran, Tehran, Iran.
(§2) Stock cell cultures were grown in RPMI 1640 medium (Gibco, USA) supplemented with 10% fetal bovine serum (FBS) and 100 unit per ml of penicillin-streptomycin (Sigma, USA) at 37°C in humidified incubator with 5% CO2 atmosphere. After three day incubation, the cells were detached using 0.25% Trypsin-0.05% EDTA solution (Biogene, Iran), and resuspended in RPMI 1640 medium containing 10% FBS. Cell count and viability was determined by Trypan blue staining followed by hemocytometry.
(§3) After incubation periods, 3-(4,5-Dimethylthiazol-2-yl)-2,5-diphenyltetrazolium bromide , MTT (Sigma, USA) was added to each well at the concentration of 0.5 mg/ml. Subsequently, microtiter plate was incubated for an additional 3 hr at 37°C and each medium was then removed prior to the addition of dimethyl sulfoxide to dissolve the formazan crystal formed by viable cells.

Series [2] has as its system mice. Put plainly: Xylene-induced ear edema test. Format: in vivo, BALB/c mice. To be noted: Mus musculus, IP 30 min before xylene, ears weighed after 2 hr. As to the method:
(§4) Animal experiments were carried out using 20-30 g male BALB/c mice purchased from Razi Institute, Mashhad, Iran. Animals were kept in plastic cages at room temperature of 21±2°C and 12 hr light/dark cycle. All experiments were performed according to the National Institute of Health guidelines for the care and use of laboratory animals and to the European Community Directive for the Care and use of Laboratory Animals of 1986 (86/609/EEC), and approved by our Institution’s Animal Care Committee.
The effect of the analogues against acute inflammation was studied using xylene-induced ear edema test in mice.
Thirty minutes later, edema was induced in each group by applying 0.03 ml of xylene to the inner surface of the right ear. After 2 hr, the mice were sacrificed under ether anesthesia and both ears were removed, sized and weighed. The increase in weight caused by the irritant was measured by subtracting the weight of the untreated left ear section from that of the treated right ear sections ([12]).

Another series addresses T1, ovine COX-2 (Ovis aries, UniProt P79208).
T1 construct: purchased Cayman Chemical Company 760111
T1 sequence (P79208 17-603): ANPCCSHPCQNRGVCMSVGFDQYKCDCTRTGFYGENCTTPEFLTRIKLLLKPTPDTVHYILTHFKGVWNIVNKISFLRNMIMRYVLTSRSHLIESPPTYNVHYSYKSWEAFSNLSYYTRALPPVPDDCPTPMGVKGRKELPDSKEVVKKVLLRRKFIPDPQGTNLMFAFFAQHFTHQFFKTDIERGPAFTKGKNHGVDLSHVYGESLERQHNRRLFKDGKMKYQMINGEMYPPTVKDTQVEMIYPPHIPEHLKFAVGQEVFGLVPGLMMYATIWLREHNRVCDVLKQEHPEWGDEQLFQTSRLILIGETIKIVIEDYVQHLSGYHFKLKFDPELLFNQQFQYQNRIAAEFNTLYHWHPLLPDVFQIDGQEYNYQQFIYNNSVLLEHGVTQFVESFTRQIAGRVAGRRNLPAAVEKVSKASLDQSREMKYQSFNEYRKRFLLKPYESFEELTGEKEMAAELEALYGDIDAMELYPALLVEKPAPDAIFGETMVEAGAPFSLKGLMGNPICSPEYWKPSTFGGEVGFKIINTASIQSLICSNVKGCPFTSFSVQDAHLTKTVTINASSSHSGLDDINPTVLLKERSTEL
Nature of the series: biochemical. Conditions: mean of two determinations. The text has this: (§5) The same kit for determination of COX-1 and COX-2 inhibition was used by us previously ([11]).

The target of the next series is T2, ovine COX-1 (Ovis aries, UniProt P05979).
T2 construct: purchased Cayman Chemical Company 760111
T2 sequence (P05979 25-600): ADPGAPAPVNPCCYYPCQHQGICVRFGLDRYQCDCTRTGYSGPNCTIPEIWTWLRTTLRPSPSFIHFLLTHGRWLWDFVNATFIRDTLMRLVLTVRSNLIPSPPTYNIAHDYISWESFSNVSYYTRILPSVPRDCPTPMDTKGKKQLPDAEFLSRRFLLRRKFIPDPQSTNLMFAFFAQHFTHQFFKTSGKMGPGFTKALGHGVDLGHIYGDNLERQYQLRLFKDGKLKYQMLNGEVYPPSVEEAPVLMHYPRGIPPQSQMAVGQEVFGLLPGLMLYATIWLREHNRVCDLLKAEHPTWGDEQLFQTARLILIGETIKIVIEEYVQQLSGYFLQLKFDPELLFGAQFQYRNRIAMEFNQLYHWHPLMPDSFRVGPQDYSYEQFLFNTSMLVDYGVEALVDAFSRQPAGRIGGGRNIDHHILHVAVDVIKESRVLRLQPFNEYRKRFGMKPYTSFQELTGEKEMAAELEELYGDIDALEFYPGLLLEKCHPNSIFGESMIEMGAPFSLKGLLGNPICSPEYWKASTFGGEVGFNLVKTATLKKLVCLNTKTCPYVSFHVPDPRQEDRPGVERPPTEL
Nature of the series: biochemical. Conditions: mean of two determinations.
Excerpt: as §5

Series [3] concerns mice. Put plainly: Acetic acid-induced writhing test. Format: in vivo, BALB/c mice. Conditions: Mus musculus, IP, acetic acid 0.7% 1 hr after compound, writhing counted 30 min. As to the method: as §4
The nociceptive responses in mice were investigated using writhing test. […] The number of abdominal constrictions (writhing episode) seen in treated animals was counted during a 30 min period ([12]). Celecoxib and normal saline was respectively used as positive and negative control.

A further series deals with Caco-2 cells. Format: cell-based. Conditions: IC50 concentration, 24 hr; untreated control 9.9. As to the method: (§6) A suspension of untreated Caco-2 or MCF-7cells (1×10^6 cells/ml) was used as negative control. Both control and test samples of cell cultures were incubated for 24 hr at 37°C and 5% CO2 atmosphere. After 24 hr incubation, adherent cells were collected, washed three times with phosphate-citrate buffer (0.2 M, pH 7.8) and fixed for 24 hr with cool ethanol at 4°C. Propidium iodide was then added to a final concentration of 50 µg/ml for DNA staining and the cells were incubated and light protected at room temperature for 3 hr. The fluorescence of the cells was analyzed in a FACScan flow cytometer (Becton Dickinson, USA). The obtained cytometric data were analyzed using WinMDI 2.8 software (The Scripps Research Institute, USA).

In series [4] the test system is MCF-7 (human breast cancer). Nature of the series: MTT cytotoxicity assay, MCF-7. Format: cell-based. To be noted: MCF7, means of three experiments, 24 hr, read-out: IC50 MCF-7 (anti-proliferative activity). The method, then: as §1, §2, §3
A further series concerns MCF-7 cells. Nature of the series: Apoptosis assay (propidium iodide flow cytometry, sub-diploid cells), MCF-7. Format: cell-based, human. To be noted: IC50 concentration, 24 hr; untreated control 12.26. The method, then:
as §6

For `CSc1ncc(C2SCC(=O)N2c2ccc(Cl)cc2)n1Cc1ccccc1` (centres unmarked) [2a, 2-(1-benzyl-2-methylthio-5-imidazolyl)-3-(4-chloro-phenyl)-1,3-thiazolidin-4-ones], the melting point is 95 to 96 °C. For the same molecule, in series [1], the IC50 worked out at 106 µM. The molecule further displayed an ED50 in the series on mice [2] of 68.3 mg/kg. The IC50 against ovine COX-2 turned out to be 0.82 µM. In addition, on ovine COX-1, the IC50 was determined as 15.6 µM. Moreover, the ED50 in the series with mice [3] is 15.1 mg/kg. Also, the “Apoptosis% (percent sub-diploid cells), Caco-2” value in the series on Caco-2 cells was determined as 35%. Moreover, the 50% inhibitory concentration (IC50) in series [4] is 121 µM.

Turning to `CCSc1ncc(C2SCC(=O)N2c2ccc(Cl)cc2)n1Cc1ccccc1` (centres unmarked) [2b, 2-(1-benzyl-2-ethylthio-5-imidazolyl)-3-(4-chloro-phenyl)-1,3-thiazolidin-4-one], the melting point lay within 97 to 98 °C. For the same molecule, the “Apoptosis% (percent sub-diploid cells), MCF-7” value in the series on MCF-7 cells is given as 45.9%. Further, the IC50 in series [1] amounted to 82.3 µM. In the series with mice [2], it took a dose of 73.6 mg/kg to reach the 50% effect level (ED50). Moreover, 0.71 µM corresponded to half-maximal inhibition against ovine COX-2 (IC50). The molecule further gave an ED50 in the series on mice [3] of 39.9 mg/kg. Besides, in the series with Caco-2 cells, the “Apoptosis% (percent sub-diploid cells), Caco-2” value was 54.4%. Also, the IC50 in series [4] stood at 110 µM.

Consider `CSc1ncc(C2SCC(=O)N2c2ccc(Cl)cc2)n1Cc1ccc(F)cc1` (centres unmarked) [2c, 2-[1-(4-fluorobenzyl)-2-methylthio-5-imidazolyl]-3-(4-chlorophenyl)-1,3-thiazolidin-4-ones], for which the melting point fell in the range of 94 to 95 °C. In the series on mice [2], this molecule registered an ED50 of 64 mg/kg. In the series on mice [3], this molecule had an ED50 of 8.76 mg/kg.

Regarding `Cc1ccc(-c2cc(C(F)(F)F)nn2-c2ccc(S(N)(=O)=O)cc2)cc1` [Celecoxib, celecoxib, reference compound], in the series on MCF-7 cells, the “Apoptosis% (percent sub-diploid cells), MCF-7” value was 59.1%. The IC50 is 50.1 µM in [1] and 76.3 µM in series [4]. For the same molecule, the “Apoptosis% (percent sub-diploid cells), Caco-2” value with Caco-2 cells worked out at 60%.

These data come from publication PMC3933800, “Synthesis, Anti-Inflammatory and Anti- Nociceptive Activities and Cytotoxic Effect of Novel Thiazolidin-4-ones Derivatives as Selective Cyclooxygenase (COX-2) Inhibitors” (Iranian Journal of Basic Medical Sciences, 2013).
